The text below walks through data of ChEMBL document CHEMBL5579883, “Discovery of Novel Neo-Clerodane Derivatives as Potent Dual-Functional Antiosteoporosis Agents through Targeting Peroxisome Proliferator-Activated Receptor-γ” (J Med Chem, 2024).

Data set [1] addresses T1, Peroxisome proliferator-activated receptor gamma (Homo sapiens, UniProt P37231).
T1 sequence (P37231 whole entry): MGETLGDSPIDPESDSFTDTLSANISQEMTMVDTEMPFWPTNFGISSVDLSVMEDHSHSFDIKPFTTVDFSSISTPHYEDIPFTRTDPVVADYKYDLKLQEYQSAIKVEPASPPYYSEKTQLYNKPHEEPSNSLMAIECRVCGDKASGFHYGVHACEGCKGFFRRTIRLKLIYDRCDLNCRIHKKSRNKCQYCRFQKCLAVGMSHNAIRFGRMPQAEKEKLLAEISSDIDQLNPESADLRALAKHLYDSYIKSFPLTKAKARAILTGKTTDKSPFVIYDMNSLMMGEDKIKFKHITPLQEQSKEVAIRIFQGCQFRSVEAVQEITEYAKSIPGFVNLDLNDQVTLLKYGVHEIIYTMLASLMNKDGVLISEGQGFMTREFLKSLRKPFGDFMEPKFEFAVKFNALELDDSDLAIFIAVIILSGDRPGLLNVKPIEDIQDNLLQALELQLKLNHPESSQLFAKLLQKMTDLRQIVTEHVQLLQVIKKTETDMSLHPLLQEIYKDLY
Put plainly: Antagonist activity at PPAR gamma LBD (203 to 476 residues) (unknown origin) expressed in HEK293T cells co-transfected with pCMV-GAL4-PPARgamma-LBD-SV40-Renilla-luciferase assessed as reduction of rosiglitazone induced PPAR-gamma activation incubated for 24 hrs by dural-luciferase reporter assay. Format: cell-based.

Data set [2] relates to BMDM. Put plainly: Inhibition of osteoclastogenesis in C57BL/6J mouse Bone marrow macrophage cells assessed as inhibition of RANKL-stimulated osteoclast formation measured after 6 days by tartrate-resistant acid phosphatase (TRAP) staining assay. As to conditions: 144 h.
In data set [3] the test system is BMDM. The experiment in a line: Cytotoxicity against mouse Bone marrow macrophage at 10 uM measured after 72 hrs by MTT assay. Format: toxicity, cell-based. On the technique in general: Tetrazolium assays rely on reduction of a dye to a coloured formazan, in cell work by metabolically active cells.
Data set [4] concerns BMDM. Put plainly: cells. As to conditions: Mus musculus, 144 h, read-out: INH.
Description: Inhibition of osteoclastogenesis in C57BL/6J mouse Bone marrow macrophage cells assessed as inhibition of RANKL-stimulated osteoclast formation at 10 uM measured after 6 days by tartrate-resistant acid phosphatase (TRAP) staining assay relative to control

Broadly, the IC50 is the concentration that inhibits the measured activity by half. `C/C=C(\C)C(=O)OC[C@@]12[C@@H](OC(C)=O)C[C@@H](C)[C@](C)(CCC3=CC(=O)OC3)[C@H]1CCC[C@]2(O)COC(C)=O`: the IC50 is more than 20 µM in data set [1] and 6.12 µM in the data set on BMDM [2]. Also, in the data set with BMDM [3], the Activity result is reported as “Non-Toxic”.
As for `C/C=C(\C)C(=O)O[C@@H](C[C@@]1(C)[C@H](C)C[C@H](OC(C)=O)[C@]2(COC(C)=O)[C@@H]1[C@H](OC(=O)/C(C)=C/C)CC[C@]21CO1)C1=CC(=O)OC1` [AJUGATAKASIN A], the Activity result in the data set on BMDM [3] is recorded as “Non-Toxic”.
On the same count and under the same terms, the entry for `COC(=O)[C@@H]1CCC[C@@H]2[C@@](C)(C[C@@H]3OC(=O)C=C3CO)[C@H](C)C[C@H](O)[C@]21C` is “Non-Toxic”.
Same read-out and setting: the same measure for `C/C=C(\C)C(=O)O[C@@H]1CC[C@]2(CO2)[C@@]2(COC(C)=O)[C@H]1[C@@](C)(C[C@H](OC(C)=O)C1=CC(=O)OC1)[C@H](C)C[C@@H]2O`: “Non-Toxic”; for `COC(=O)[C@@H]1CCC[C@@H]2[C@@](C)(C[C@H](O)C3=CC(=O)OC3)[C@H](C)C[C@H](O)[C@]21C`: “Non-Toxic”.
Take `C/C=C(\C)C(=O)O[C@@H]1CC[C@](O)(CCl)[C@]2(COC(C)=O)[C@@H](OC(C)=O)C[C@@H](C)[C@](C)(C/C=C(/C=O)CC(=O)OC)[C@@H]12`: the figures for the IC50 (in data set [1]; in the data set on BMDM [2]) were more than 20 µM and more than 10 µM, respectively. The Activity entry in the data set on BMDM [3] is “Non-Toxic”.
Consider `C/C=C(\C)C(=O)O[C@@H]1CC[C@](O)(CCl)[C@]2(COC(C)=O)[C@@H](OC(C)=O)C[C@@H](C)[C@](C)(C[C@H](O)C3=CC(=O)OC3)[C@@H]12` [AJUGAMARIN A1 CHLOROHYDRIN], for which, in the data set on BMDM [3], the Activity result is “Non-Toxic”.
For `NCCCC(O)(P(=O)(O)O)P(=O)(O)O` [ALENDRONIC ACID], the IC50 with BMDM [2] amounted to 4.22 µM. Besides, the inhibition at 10 µM with BMDM [4] is more than 50%.
Turning to `CC(=O)OC[C@@]12[C@@H](OC(C)=O)C[C@@H](C)[C@](C)(CCC3=CC(=O)OC3)[C@H]1CCC[C@]21CO1` [AJUGARIN I], the IC50 came out at 12 µM in data set [1] and 3.71 µM in the data set on BMDM [2]. The inhibition at 10 µM in the data set with BMDM [4] was more than 50%. In the data set with BMDM [3], the Activity entry is “Non-Toxic”.
As for `C/C=C(\C)C(=O)O[C@@H](C[C@@]1(C)[C@H](C)C[C@H](OC(C)=O)[C@]2(COC(C)=O)[C@@H]1CCC[C@]2(O)CCl)C1=CC(=O)OC1`, the Activity result in the data set with BMDM [3] was “Non-Toxic”.
Consider `C/C=C(\C)C(=O)OC[C@@]12[C@H](CCC[C@]1(O)CCl)[C@@](C)(CCC1=CC(=O)OC1)[C@H](C)C[C@@H]2O`, for which the IC50 was found to be 10.4 µM in data set [1] and 1.77 µM in the data set with BMDM [2]. The inhibition at 10 µM in the data set on BMDM [4] is more than 50%. Also, the Activity result in the data set with BMDM [3] is on record as “Non-Toxic”.
`CCC(C)C(=O)O[C@@H](C[C@@]1(C)[C@H](C)C[C@H](O)[C@]2(C)[C@@H]1CCC[C@H]2C(=O)OC)C1=CC(=O)OC1` (stereo not given in full): the IC50 in data set [1] was 13 µM; in the data set with BMDM [2] it was 1.23 µM. Also, in the data set with BMDM [4], the inhibition at 10 µM is more than 50%. Besides, in the data set on BMDM [3], the Activity entry was “Non-Toxic”.
On to `C/C=C(\C)C(=O)O[C@@H](C[C@@]1(C)[C@H](C)C[C@H](O)[C@]2(C)[C@@H]1CCC[C@H]2C(=O)OC)C1=CC(=O)OC1`, for which the IC50 in the data set on BMDM [2] turned out to be 1.42 µM. Moreover, in the data set on BMDM [4], the inhibition at 10 µM is more than 50%. Also, in the data set with BMDM [3], the Activity entry was “Non-Toxic”.
Turning to `C/C=C(\C)C(=O)OC[C@]12C(=O)CCC[C@@H]1[C@@](C)(CCC1=CC(=O)OC1)[C@H](C)CC2=O`, the IC50 came out at 13.3 µM in data set [1] and 2.71 µM in the data set with BMDM [2]. The Activity entry with BMDM [3] was “Non-Toxic”.
Taken in the same sequence, the figures for `C/C=C(\C)C(=O)OC[C@@]12C(=O)C[C@@H](C)[C@](C)(CCC3=CC(=O)OC3)[C@H]1CCC[C@]21CO1` were 2.05 µM, 0.83 µM and “Non-Toxic”.
Regarding `CCC(C)C(=O)O[C@@H]1CC[C@]2(CO2)[C@]2(COC(C)=O)[C@@H](OC(C)=O)C[C@@H](C)[C@](C)(C[C@H](O)C3=CC(=O)OC3)[C@@H]12` (stereo not given in full) [DIHYDROAJUGAMARIN], the Activity result with BMDM [3] is “Non-Toxic”.
On the same count and under the same terms, the same measure for `C[C@@H]1C[C@H](O)[C@@]2(COC(=O)/C=C/c3ccc(F)cc3)C(=O)CCC[C@@H]2[C@@]1(C)CCC1=CC(=O)OC1`: “Non-Toxic”; for `CC(=O)OC[C@@]12[C@@H](OC(C)=O)C[C@@H](C)[C@](C)(C[C@H](O)C3=CC(=O)OC3)[C@H]1CCC[C@]21CO1` [AJUGALIDE C]: “Non-Toxic”.
On the same count and under the same terms, the entry for `CC(=O)OC[C@@]12[C@@H](OC(C)=O)C[C@@H](C)[C@](C)(C[C@H](OC(C)=O)C3=CC(=O)OC3)[C@H]1[C@H](OC(C)=O)CC[C@]21CO1` [AJUGAPANTIN A] is “Non-Toxic”; for `CCC(C)C(=O)O[C@@H]1CC[C@]2(CO2)[C@]2(COC(C)=O)[C@@H](OC(C)=O)C[C@@H](C)[C@](C)(C[C@H](OC(C)=O)C3=CC(=O)OC3)[C@@H]12` (stereo not given in full) it is “Non-Toxic”.
Regarding `C[C@@H]1C[C@H](O)[C@@]2(CO)C(=O)CCC[C@@H]2[C@@]1(C)CCC1=CC(=O)OC1`, the half-maximal inhibitory concentration (IC50) in data set [1] is more than 20 µM; in the data set with BMDM [2] it was more than 10 µM. The Activity entry with BMDM [3] was “Non-Toxic”.
Taken in the same sequence, the figures for `C/C=C(\C)C(=O)OC[C@]12[C@H]3CCC[C@@]1(O)CO[C@@]2(O)C[C@H](C)[C@@]3(C)CCC1=CC(=O)OC1` were 8.18 µM, 1.04 µM and “Non-Toxic”.
On to `C/C=C(\C)C(=O)OC[C@@]12C(=O)C[C@@H](C)[C@](C)(CCC3=CC(=O)OC3)[C@H]1CCC[C@]2(O)CCl`, for which, in the data set on BMDM [3], the Activity entry was “Toxic”.
For `CC(=O)O[C@H]1C[C@@H](C)[C@](C)(CCC2=CC(=O)OC2)[C@H]2CCCC(=O)[C@]12CO`, the IC50 in data set [1] is more than 20 µM; with BMDM [2] it was more than 10 µM. Besides, in the data set on BMDM [3], the Activity entry is on record as “Non-Toxic”.
For the compound `C[C@@H]1C[C@H](O)[C@@]23COC[C@@H]2CCC[C@@H]3[C@@]1(C)CCC1=CC(=O)OC1`, in the data set with BMDM [3], the Activity entry is “Non-Toxic”.
Regarding `C/C=C(\C)C(=O)O[C@@H]1CC[C@]2(CO2)[C@]2(COC(C)=O)[C@@H](OC(C)=O)C[C@@H](C)[C@](C)(C[C@H](O)C3=CC(=O)OC3)[C@@H]12` [AJUGAMARIN A1], the Activity result in the data set with BMDM [3] was “Non-Toxic”.
Still for that read-out and setting: the same measure for `C[C@@H]1C[C@H](O)[C@@]2(COC(=O)c3ccc(C(F)(F)F)cc3)C(=O)CCC[C@@H]2[C@@]1(C)CCC1=CC(=O)OC1`: “Non-Toxic”.
Consider `C[C@@H]1C[C@H](O)[C@@]2(COC(=O)c3ccc(N(C)C)cc3)C(=O)CCC[C@@H]2[C@@]1(C)CCC1=CC(=O)OC1`, for which the IC50 in the data set with BMDM [2] turned out to be 0.31 µM. In addition, in the data set with BMDM [3], the Activity result is recorded as “Non-Toxic”.
For the compound `O=C(Nc1ccncc1)c1cc([N+](=O)[O-])ccc1Cl`, the IC50 with BMDM [2] stood at 0.067 µM.
For `C[C@@H]1C[C@H](O)[C@@]2(COC(=O)/C=C/c3ccc(C(F)(F)F)cc3)C(=O)CCC[C@@H]2[C@@]1(C)CCC1=CC(=O)OC1`, the Activity entry in the data set on BMDM [3] is listed as “Non-Toxic”.
Consider `C/C=C(\C)C(=O)O[C@@H](C[C@@]1(C)[C@H](C)C[C@H](OC(C)=O)[C@]2(COC(C)=O)[C@@H]1[C@H](OC(C)=O)CC[C@]21CO1)C1=CC(=O)OC1` [AJUGANIPPONIN A], for which, in data set [1], the IC50 was found to be 11.6 µM. Besides, in the data set on BMDM [3], the Activity result is recorded as “Non-Toxic”.
Consider `C/C=C(\C)C(=O)O[C@@H]1CC[C@]2(CO2)[C@]2(COC(C)=O)[C@@H](OC(C)=O)C[C@@H](C)[C@](C)(C[C@H](OC(=O)C(C)CC)C3=CC(=O)OC3)[C@@H]12` (stereo not given in full), for which the Activity result in the data set on BMDM [3] is listed as “Non-Toxic”.
Still for that read-out and setting: the entry for `C[C@@H]1C[C@H](O)[C@@]2(COC(=O)c3ccc(F)cc3)C(=O)CCC[C@@H]2[C@@]1(C)CCC1=CC(=O)OC1` is “Non-Toxic”.
The same measure, in the same setting: the entry for `C/C=C(\C)C(=O)OC[C@@]12[C@H](CCC[C@]13CO3)[C@@](C)(CCC1=CC(=O)OC1)[C@H](C)C[C@@H]2O` is “Non-Toxic”.
As for `C/C=C(\C)C(=O)O[C@@H]1CC[C@]2(CO2)[C@]2(COC(C)=O)[C@@H](OC(C)=O)C[C@@H](C)[C@](C)(CC(=O)C3=CC(=O)OC3)[C@@H]12`, the IC50 is more than 20 µM in data set [1] and more than 10 µM in the data set with BMDM [2]. For the same compound, the Activity result with BMDM [3] is “Non-Toxic”.
For the compound `COC(=O)[C@@H]1CC[C@@H](O)[C@@H]2[C@@](C)(C[C@H](O)C3=CC(=O)OC3)[C@H](C)C[C@H](O)[C@]21C`, in the data set with BMDM [3], the Activity entry was “Non-Toxic”.
In the case of `C/C=C(\C)C(=O)OC[C@]12C(=O)CCC[C@@H]1[C@@](C)(CCC1=CC(=O)OC1)[C@H](C)C[C@@H]2OC(C)=O`, the Activity result in the data set on BMDM [3] is reported as “Non-Toxic”.
Still for that read-out and setting: the same measure for `C/C=C(\C)C(=O)OC[C@@]12[C@@H](OC(C)=O)C[C@@H](C)[C@](C)(C[C@H](O)C3=CC(=O)OC3)[C@H]1CCC[C@]21CO1`: “Non-Toxic”.
Still for that read-out and setting: the same measure for `C/C=C(\C)C(=O)OC[C@@]12[C@@H](OC(C)=O)C[C@@H](C)[C@](C)(CCC3=CC(=O)OC3)[C@H]1CCC[C@H]2C(=O)O`: “Non-Toxic”.
Regarding `C/C=C(\C)C(=O)O[C@@H]1CC[C@]2(CO2)[C@]2(COC(C)=O)[C@@H](OC(C)=O)C[C@@H](C)[C@](C)(C[C@H](OC(C)=O)C3=CC(=O)OC3)[C@@H]12` [AJUGAMARIN A2], the Activity result with BMDM [3] is “Non-Toxic”.
